Earlier results in US12144813B2, “PLK1 inhibitor in combination with anti-angiogenics for treating metastatic cancer” (CARDIFF ONCOLOGY, INC., priority 2022, dated 2024).
Where two headings read alike, the source gives them in different places. Values belong to the compound of their own block, whether it stands above or below them.

Legend:
[1] = test system: 2nd line patients, bev naïve or prior bev in 1st line; conditions: prior trials
[2] = test system: AML; conditions: combination with LDAC; phase III
[3] = test system: patients with AML who were treatment naïve yet unsuitable for induction therapy; conditions: administered intravenously in combination with LDAC; phase II
[4] = test system: AML cell lines
[5] = test system: cancer cell lines
[6] = molecular target: PLK1 (Homo sapiens, UniProt P53350); conditions: panel of 296 kinases, including other PLK members
Chain of PLK1 (P53350 whole entry): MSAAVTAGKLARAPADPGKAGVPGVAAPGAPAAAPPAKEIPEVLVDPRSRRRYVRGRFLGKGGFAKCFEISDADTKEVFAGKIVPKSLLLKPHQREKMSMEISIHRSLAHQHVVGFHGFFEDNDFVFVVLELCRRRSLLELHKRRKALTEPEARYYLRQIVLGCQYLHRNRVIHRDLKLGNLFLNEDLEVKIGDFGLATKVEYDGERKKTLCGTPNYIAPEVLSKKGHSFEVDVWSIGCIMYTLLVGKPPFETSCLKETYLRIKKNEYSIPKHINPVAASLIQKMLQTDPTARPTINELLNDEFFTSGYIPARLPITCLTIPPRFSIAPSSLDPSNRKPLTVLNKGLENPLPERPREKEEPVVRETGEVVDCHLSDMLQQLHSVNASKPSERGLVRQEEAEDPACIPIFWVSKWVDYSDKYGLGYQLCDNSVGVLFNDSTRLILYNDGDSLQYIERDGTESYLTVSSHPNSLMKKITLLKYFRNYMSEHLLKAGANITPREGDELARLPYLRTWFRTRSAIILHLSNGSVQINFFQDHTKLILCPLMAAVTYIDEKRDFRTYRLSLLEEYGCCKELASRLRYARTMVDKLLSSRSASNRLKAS

[7] = test system: HT29 human colon adenocarcinoma xenografts; conditions: combination with irinotecan
[8] = test system: patients with advanced/metastatic solid tumors
[9] = test system: cell lines, both from solid as well as hematologic tumors; conditions: large number of cell lines, solid and hematologic tumors
[10] = test system: xenograft tumor; conditions: well tolerated doses in mice after oral administration
[11] = test system: disseminated model of AML

Compound: Bevacizumab: anti-angiogenics / angiogenesis inhibitor, also referred to herein as bev
mOS ([1]; bev naïve patients): 13.9 months
mPFS ([1]; bev naïve patients): 6.9 months
mOS ([1]; patients with prior bev): 12.5 months
mPFS ([1]; patients with prior bev): 6.7 months

Risk of severe infections [2]: increased risk of severe infections
Compound: CC[C@@H]1C(=O)N(C)c2cnc(Nc3ccc(C(=O)N[C@H]4CC[C@H](N5CCN(CC6CC6)CC5)CC4)cc3OC)nc2N1C(C)C [volasertib (BI6727)]
Benefit of the combination [2]: no benefit
OS compared with LDAC alone [3]: significant increase in OS

Specificity for PLK1 [6]: high specificity
Compound: CN1CCN(c2ccc(OC(F)(F)F)c(Nc3ncc4c(n3)-c3c(c(C(N)=O)nn3CCO)CC4)c2)CC1 [Onvansertib, 1-(2-hydroxyethyl)-8-{[5-(4-methylpiperazin-1-yl)-2-(trifluoromethoxy)phenyl]amino}-4,5-dihydro-1H-pyrazolo[4,3-h]quinazoline-3-carboxamide]
Inhibition of cell proliferation [4]: nanomolar concentrations
Cell-cycle effect [5]: mitotic cell-cycle arrest followed by apoptosis
Tumor regression compared to each agent alone [7]: enhanced tumor regression
Primary dose-limiting toxicities ([8]; phase I, patients with advanced/metastatic solid tumors): neutropenia and thrombocytopenia
Recovery from hematologic toxicities ([8]; reversible toxicities): ≤ 3 weeks
Potency in proliferation assays [9]: low nanomolar activity
Xenograft tumor growth [10]: inhibits xenograft tumor growth
Survival of animals ([11]; disseminated model of AML, combination therapy with cytarabine): prolonged survival
Effect on cytarabine antitumor activity ([11]; disseminated models of AML, with cytarabine): significantly increased
